Where two headings read alike, the source gives them in different places.
Columns and labels:
[1] = system: human colon carcinoma (HT29); assay: effect of S-thioalkylphosphonate on tumor cell line (% of control); type: cell-based; details: read-out: HT29 cells (% of control)
[2] = system: RPMI7915 cells (human melanoma); assay: as above; type: cell-based
[3] = system: WEHI-3B cells; assay: WEHI-3B tumor growth under the skin in mice (S-thioalkylphosphonate); type: in vivo
Protocol: We also provide data on the activity of S-thioalkylphosphonate to delay growth of tumor in the mice. WEHI-3B cells were grown in mice under the skin. Three days after the injection of cancer cells the mice received daily 10 mg/kg thialkylphosphonate for 21 days. The control mice received the saline alone instead of the drug. After 21 days, the tumor volume was measured. […] The tumor volume was measured in CM^3.

[4] = system: L1210 tumor cells; assay: colonogenic cell survival assay; type: cell-based; details: Mus musculus, 120 h, L1210, soft agar, read-out: Number of Colonies Formed (% of Control)
Protocol: (§1) Inhibition of colony formation in soft agar medium (colonogenic cell survival assay) is a more rigorous and direct measurement of cell kill or growth inhibition, and reflects the anti-cancer activity of the test compound. Briefly, tumor cells were cultured in petri dishes in methylcellulose, with or without a phosphonate test compound, and the number of colonies formed during a 5-day incubation period were counted.
The effectiveness of S-thioalkylphosphonate on the growth of a lymphoma cell line was also investigated. L1210 is a mouse B-Cell tumor (lymphoma), was tested in soft agar for susceptibility to the cytotoxic action of thioalkylphosphonate.

[5] = system: P388 tumor cells; assay: colonogenic cell survival assay; type: cell-based; details: Mus musculus, 120 h, P388, soft agar, 5 days, read-out: Number of colonies Formed (% of Control)
Protocol: as §1
The efficacy of 4-hexadecylthio-3-methoxybutane phosphonocholine on the growth of a mouse […] tumor was evaluated. The P388 cell line was cultured in a soft agar in the presence and absence of various concentrations of thioalkylphosphonate for 5 days, the number of tumor colonies formed during this period of time was registered.

[6] = system: C-41 tumor cells; assay: 3H-thymidine incorporation assay; type: cell-based; details: Homo sapiens, read-out: Thymidine uptake (% of control)
Protocol: (§2) Experiments were performed using a number of different rumor cell lines. Tumor cells were cultured in RPMI-1640 medium supplemented with 10% fetal bovine serum, penicillin (50 units/mL), streptomycin (50 μg/mL) and mercaptoethanol (5 μg/mL) in an atmosphere of 5% CO2. The cells were passaged weekly by serial 1/10 to 1/10,000 dilutions. The cell viability and growth were constantly monitored by staining with trypan blue exclusion dye or the incorporation of tritiated thymidine.
(§3) Inhibition of ^3 H-thymidine incorporation into the DNA of cells by a test compound is an indirect measurement of cell kill or growth inhibition, and reflects the anti-cancer activity of the compound.
(§4) Tumor cells (2×104 ^4 cells/well) were placed in 200 μL of medium in 96-well plastic microtiter plates; a further 5 μL of medium either with or without phosphonate was added. After incubation for 24, 48 or 72 hours at 37° C. in a humidified atmosphere containing 5% CO2, the wells were pulsed with 0.1 μCi of ^3 H-thymidine for an additional 24 hours. The cells were then harvested using a Brandel cell harvester (model M-12) and collected on Whatman glass microfilters. The radioactivity associated with the filters was quantified in a liquid scintillation counter, and the amount of ^3 H-thymidine incorporated into tumor cells treated with the phosphonate compound was calculated as a percentage of the amount of ^3 H-thymidine incorporated into untreated tumor cells.
It has been discovered that a phosphonate compound of the following structure: [drawing 21] inhibits thymidine incorporation into DNA of a human cervical carcinoma (C-41 ) cell line. This effect is indicative of the anti-cancer activity of the above compound.

[7] = system: WEHI-3B tumor cells; assay: 3H-thymidine incorporation assay; type: cell-based; details: Mus musculus, WEHI3B, read-out: Thymidine uptake (% of control)
Protocol: as §2, §3
as §4, with “After incubation for 24, 48 or 72 hours at 37° C. in a humidified atmosphere containing 5% CO2, the wells were pulsed with 0.1 μCi of ^3 H-thymidine for an additional 24 hours.” left out
The biological activities of 4-hexadecylthio-3(S ) -3-methoxybutane-l-phosponocholine and its enantiomer 4-hexadecylthio-3(R)-3-methoxybutane-1-phosphonocholine were studied on several cancer cell lines. […] The cell viability, was determined as percent[^3 H]thymidine uptake into the cell DNA. The following results are mean of five samples ± S.D.

[8] = system: Lewis lung carcinoma cells; assay: LLC tumor growth in BALB/C mice; type: in vivo; details: for Tumor volume (mm^3): 50 mg/day orally once a day from day 3
Protocol: BALB/C mice were injected with […] lung carcinoma cells under the skin at the back. Three days after injection of the rumor cells, treatment with the phosphonate shown above (compound VI) (50 mg/day orally once a day) was initiated in one group of mice, while a second group of mice received only the carrier, mucilage of tragacanth.

CCCCCCCCCCCCCCCCSCC(CCP(=O)([O-])OCC[N+](C)(C)C)OC (centres unmarked) [S-Thioalkylphosphonocholine, 4-hexadecylthio-3-methoxybutane phosphonocholine]
activity at 0.6 µM ([1]; HT-29, 0.6 μM): 99% | activity at 1.25 µM ([1]; HT-29, 1.25 μM): 83% | activity at 2.5 µM ([1]; HT-29, 2.5 μM): 71% | activity at 5 µM ([1]; HT-29, 5 μM): 54% | activity at 10 µM ([1]; HT-29, 10 μM): 45% | activity at 20 µM ([1]; HT-29, 20 μM): 18% | activity at 40 µM ([1]; HT-29, 40 μM): 1% | activity at 0.6 µM ([2]; RPMI-7951, 0.6 μM): 98% | activity at 1.25 µM ([2]; RPMI-7951, 1.25 μM): 80% | activity at 2.5 µM ([2]; RPMI-7951, 2.5 μM): 78% | activity at 5 µM ([2]; RPMI-7951, 5 μM): 63% | activity at 10 µM ([2]; RPMI-7951, 10 μM): 40% | activity at 20 µM ([2]; RPMI-7951, 20 μM): 29% | activity at 40 µM ([2]; RPMI-7951, 40 μM): 0% | reduction of tumor size ([3]; after 21 days, daily 10 mg/kg): about 50% | Tumor Volume at Day 21 ([3]; daily 10 mg/kg for 21 days, from three days after injection of cancer cells): .0359 ± 0.128 cm^3 | activity at 0.65 µM ([4]; 0.65 μM): 65% | activity at 1.25 µM ([4]; 1.25 μM): 47% | activity at 2.5 µM ([4]; 2.5 μM): 30.5% | activity at 5 µM ([4]; 5 μM): 30% | activity at 10 µM ([4]; 10 μM): 20.5% | activity at 20 µM ([4]; 20 μM): 14% | activity at 0.62 µM ([5]; 0.62 μM): 55% | activity at 1.25 µM ([5]; 1.25 μM): 43.7% | activity at 2.5 µM ([5]; 2.5 μM): 41% | activity at 5 µM ([5]; 5 μM): 29% | activity at 10 µM ([5]; 10 μM): 3% | activity at 20 µM ([5]; 20 μM): 1%

CCCCCCCCCCCCCCCCCCOCC(CCP(=O)([O-])OCC[N+](C)(C)C)OC (centres unmarked) [compound VI]
activity at 2.5 µM ([6]; C4-1, 2.5 μM): 88% | activity at 5 µM ([6]; C4-1, 5 μM): 63% | activity at 10 µM ([6]; C4-1, 10 μM): 42% | activity at 20 µM ([6]; C4-1, 20 μM): 41% | activity at 40 µM ([6]; C4-1, 40 μM): 16% | activity at 1.25 µM ([7]; 24 h, Day 1): 95% | activity at 2.5 µM ([7]; 24 h, Day 1): 72% | activity at 5 µM ([7]; 24 h, Day 1): 34% | activity at 10 µM ([7]; 24 h, Day 1): 18% | activity at 20 µM ([7]; 24 h, Day 1): 8% | activity at 40 µM ([7]; 24 h, Day 1): 3% | activity at 1.25 µM ([7]; 48 h, Day 2): 84% | activity at 2.5 µM ([7]; 48 h, Day 2): 67% | activity at 5 µM ([7]; 48 h, Day 2): 22% | activity at 10 µM ([7]; 48 h, Day 2): 13% | activity at 20 µM ([7]; 48 h, Day 2): 2% | activity at 40 µM ([7]; 48 h, Day 2): 2% | activity at 1.25 µM ([7]; 72 h, Day 3): 77% | activity at 2.5 µM ([7]; 72 h, Day 3): 54% | activity at 5 µM ([7]; 72 h, Day 3): 12% | activity at 10 µM ([7]; 72 h, Day 3): 10% | activity at 20 µM ([7]; 72 h, Day 3): 1% | activity at 40 µM ([7]; 72 h, Day 3): 2% | Tumor volume (mm^3) ([8]; day 0 after tumor injection): 0 mm^3 | Tumor volume (mm^3) ([8]; day 7 after tumor injection): 0 mm^3 | Tumor volume (mm^3) ([8]; day 10 after tumor injection): 0 mm^3 | Tumor volume (mm^3) ([8]; day 17 after tumor injection): 100 mm^3 | Tumor volume (mm^3) ([8]; day 18 after tumor injection): 175 mm^3 | Tumor volume (mm^3) ([8]; day 20 after tumor injection): 252 mm^3 | Tumor volume (mm^3) ([8]; day 22 after tumor injection): 500 mm^3 | retardation of tumor growth ([8]; versus untreated animals, 50 mg/day orally once a day): approximately 6 days

Source: patent US5506217A, “Phosphonates as anti-cancer agents” (The University of British Columbia, priority 1994, dated 1996)
